Results reported in paper doi:10.1101/2025.03.14.643303, “A genome-scale drug discovery pipeline uncovers new therapeutic targets and a unique p97 allosteric binding site in Schistosoma mansoni” (bioRxiv, 2025).
“Also recorded” adds a separate entry of the source. Like-named read-outs stand apart in the source and are kept apart here.

Key:
[1] = molecular target: S. mansoni p97 (Smp_018240) (Schistosoma mansoni, UniProt G4M0P7); assay: biochemical; conditions: for IC50: read-out: S. mansoni IC50
Procedure: E. coli BL21 (DE3) containing the desired plasmid were grown in LB medium containing […] kanamycin while shaking at 37 °C to an OD600 of 0.6–0.8. The temperature was reduced to 18°C and 0.8 mM isopropyl-beta-D-thiogalactopyranoside (IPTG) was added. The bacterial culture was harvested 16hr later by centrifugation. The resulting pellet was suspended in 60 mL lysis buffer/2L bacterial culture [20 mM Tris (pH 7.4), 300 mM NaCl, 5 mM MgCl2, 20 mM imidazole, 1% Triton X-100, 1 mg/mL lysozyme, 10% glycerol, 3 mM β-mercaptoethanol, 0.2 mM PMSF, and protease inhibitor tablet (Roche)]. […] The lysate was centrifuged at 40,000 × rpm for 35 min at 4°C. The resulting supernatant was incubated with Ni-NTA beads equilibrated to lysis buffer for 1 hr at 4°C before being loaded onto a gravity column. The bead bed was washed with wash buffer [20 mM Tris (pH 7.4), 500 mM NaCl, 5 mM MgCl2, 40 mM imidazole, 0.05% Triton X-100, 10% glycerol, 3 mM β-mercaptoethanol, 0.2 mM PMSF, 0.001 mg/mL Aprotinin, and 0.002 mg/mL Leupeptin], then eluted in the same buffer with 250 mM imidazole in wash buffer. Fractions containing p97 were concentrated using Pierce Protein Concentrators (100k MWCO) and loaded onto a gel-filtration column (Superdex 200PG) and eluted using SEC buffer [20 mM Tris (pH 7.4), 180 mM NaCl, 5 mM MgCl2, and 10% glycerol] at 0.5 mL/min flow rate on a BioRad NGC Chromatography System. Fractions corresponding to an apparent molecular weight of 500 – 600 kDa were collected and analyzed by 4–20% SDS/PAGE to evaluate purity. Concentration was determined using a BSA standard. Fractions containing purified protein were aliquoted, snap frozen in liquid nitrogen, and stored at −80 °C until use.
For manual ATP consumption assays, 1 μM p97 was incubated with 1% DMSO or inhibitor (1% DMSO final) in assay buffer [50 mM Tris (pH 7.5), 20 mM MgCl2, 1 mM EDTA, 0.5 mM tris(2-carboxyethyl)phosphine (TCEP)] for 5 minutes prior to the addition of 20 μM ATP in a 384-well plate for a total reaction volume of 10 μL, and a final concentration of 500nM enzyme and 10 μM ATP. The reaction was allowed to proceed for 50 minutes at room temperature before adding equivalent volume of Kinase-Glo Plus reagent (Promega), and a further incubation of 10 minutes in the dark.
IC50 values were calculated using GraphPad Prism.

H. sapiens p97 (P55072) = molecular target: T1, H. sapiens p97 (P55072) (Homo sapiens, UniProt P55072); assay: p97 ATPase activity, ATP consumption assay (Kinase-Glo), IC50 / counter screen; format: biochemical
T1 construct: 6xHis (C); made in house; host or cells: E. coli BL21 (DE3)

HepG2 cells = assay: HepG2 cytotoxicity assay (Cell Titer Glo 2.0); format: cell-based, human; conditions: Homo sapiens
Procedure: HepG2 cells (ATCC) were plated at 2500 cells/well in 50 μL/well, dispersing cells using a 25g needle to break up clumps prior to plating. Plates were incubated for 24hr at 37C, 5% CO2. Following 24hr, 50 μL media containing 0.6% DMSO was added to a set of wells on one plate. The plate and Cell Titer Glo 2.0 reagent were brought to RT. A T=0 read was taken by adding 40 μL reagent/well, rocking the plate at 100 rpm for 2 min, then reading luminescence ~10 min later. […] 50 μL 2x concentrated compound was added to wells containing cells in 50 μL 24 hr after plating. Concentrations were tested in triplicate at following values: 30, 10, 3.3, 1.1, 0.37, 0.12, and 0.04 μM. Plates were incubated for 72 hr at 37C, 5% CO2. Following equilibration to room temperature, 40 μL undiluted reagent was added to each well, the plate rocked at 100 rpm for 2 min and then read for luminescent signal ~10 min later.
Values are plotted in excel and the 50% point determined by interpolation. Values were revisualized in Prism.

adult S. mansoni worms = assay: Treatment of adult S. mansoni worms in culture with inhibitors (attachment to tissue culture substrate, morphology; single 10 μM and dose-response EC50); format: cell-based, Schistosoma mansoni; conditions: for time to detachment of adult worms in culture / effect on adult worms: 10 μM; for EC50: Schistosoma mansoni, read-out: S. mansoni EC50; for effect on adult worms: benzoxazole propiolamide series, treated 72 hours, monitored until D5
Procedure: Adult S. mansoni (NMRI strain) (6–7 weeks post-infection) worms were harvested from infected female Swiss Webster mice by hepatic portal vein perfusion using 37°C DMEM (Mediatech, Manassas, VA), 8% Horse Serum, and heparin.
Roughly 5 adult worm pairs were placed in 3mL Basch medium in a 12-well culture vessel, and incubated at 37°C, 5% CO2 for the length of the experiment. Compound was administered at D0, D1, and D2, media and drug refreshed every 24 hr. Worms were then allowed to remain in culture until D5, where a final assessment of worm attachment to tissue culture substate was made by light microscopy. Observations on movement and morphology were also recorded. A negative control (0.1% DMSO) and positive control (PZQ; 10 μM in 0.1% DMSO) were included in each experiment, and each experiment was repeated in triplicate for validation. For compounds that caused complete detachment in replicate experiments, the treatment was expanded to three concentrations (10 μM, 5 μM, and 1 μM) following the same treatment schedule and controls as detailed above. […] Each titration experiment was performed in triplicate according to the treatment regimen described above, using DMSO and PZQ as appropriate controls. Morphologies and motility were assessed by light microscopy, and dose-response curves were calculated using the primary readout of parasite attachment to tissue culture substrate in GraphPad Prism. […]
[…] Values were calculated using Prism.

[2] = tested on: S. mansoni vcp/p97 (Smp_018240); assay: High-throughput screening (HTS) assay, Kinase-Glo, 10 μM single concentration; format: biochemical, Schistosoma mansoni; conditions: for Screen Inhibition: 10 μM compound, normalized to CB-5083, Fig. 4A; for inhibition of S. mansoni p97 function in the screen: high-throughput screen
Text: Kinase-Glo (Promega, part K1214) was purchased from Promega. Microtiter plates (384 wells) were purchased from Perkin Elmer. All chemicals included in the UTSW library were sourced from commercial sources [ChemDiv (150,000 compounds), ChemBridge (125,500), ComGenex (22,000), Prestwick Chemical, (1,100) and TimTec (500)] or UT Southwestern chemists (https://www.utsouthwestern.edu/research/core-facilities/high-throughput-screening/libraries/). For initial screening, compounds were dispensed by Echo 555 robot for a final concentration of 10 μM (0.2% DMSO). Luminescence was read by EnVision multimode plate reader (Perkin-Elmer). Assay conditions were consistent between manual and high-throughput assays [10 μM ATP, 50 mM Tris (pH 7.5), 20 mM MgCl2, 1 mM EDTA, 0.5 mM tris(2-carboxyethyl)phosphine (TCEP)]. The plates were then incubated for 50 min at room temperature before addition of Kinase-Glo reagent and further incubation in the dark for 10 minutes before reading luminescence. […] Hit compounds were validated using a dose-response curve (19.8 μM, 9.92 μM, 4.96 μM, 3.72 μM, 2.48 μM, 1,24 μM, 0.619 μM, 0.342 μM, 0.256 μM, 0.171 μM, 0.0854 μM, 0.0427 μM, and 0 μM) in triplicate. Compounds were also subjected to a counter screen using a dose-response curve against the full-length human p97 enzyme to determine preliminary selectivity.

[3] = Smp97, re-tested screen compounds, 100 μM-1 nM, Fig. 4A
[4] = Hsp97, re-tested screen compounds, 100 μM-1 nM, Fig. 4A
[5] = H. sapiens vs S. mansoni p97 IC50, Suppl. Fig. 11D

Sequence of S. mansoni p97 (Smp_018240) (G4M0P7 entry or part of it): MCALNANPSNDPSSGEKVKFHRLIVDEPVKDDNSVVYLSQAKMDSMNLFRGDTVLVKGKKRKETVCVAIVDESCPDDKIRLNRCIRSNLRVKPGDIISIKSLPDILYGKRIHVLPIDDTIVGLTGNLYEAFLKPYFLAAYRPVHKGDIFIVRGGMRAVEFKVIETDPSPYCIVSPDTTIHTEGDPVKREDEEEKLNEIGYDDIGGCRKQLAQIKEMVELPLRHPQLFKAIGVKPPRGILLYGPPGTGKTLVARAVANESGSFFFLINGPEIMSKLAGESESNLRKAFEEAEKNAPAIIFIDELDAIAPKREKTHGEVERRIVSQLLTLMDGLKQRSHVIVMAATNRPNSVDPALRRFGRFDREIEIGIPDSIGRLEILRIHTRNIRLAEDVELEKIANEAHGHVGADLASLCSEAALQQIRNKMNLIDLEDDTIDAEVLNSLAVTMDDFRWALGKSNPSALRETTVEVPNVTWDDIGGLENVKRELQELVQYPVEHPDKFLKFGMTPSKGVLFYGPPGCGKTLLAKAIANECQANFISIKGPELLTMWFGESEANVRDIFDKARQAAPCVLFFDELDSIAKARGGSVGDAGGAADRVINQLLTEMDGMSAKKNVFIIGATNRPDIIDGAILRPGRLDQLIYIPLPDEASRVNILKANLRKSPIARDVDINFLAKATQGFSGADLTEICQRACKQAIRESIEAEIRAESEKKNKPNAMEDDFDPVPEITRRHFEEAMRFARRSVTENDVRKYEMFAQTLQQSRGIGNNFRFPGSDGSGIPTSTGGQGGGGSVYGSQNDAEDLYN
T1 sequence (P55072 whole entry): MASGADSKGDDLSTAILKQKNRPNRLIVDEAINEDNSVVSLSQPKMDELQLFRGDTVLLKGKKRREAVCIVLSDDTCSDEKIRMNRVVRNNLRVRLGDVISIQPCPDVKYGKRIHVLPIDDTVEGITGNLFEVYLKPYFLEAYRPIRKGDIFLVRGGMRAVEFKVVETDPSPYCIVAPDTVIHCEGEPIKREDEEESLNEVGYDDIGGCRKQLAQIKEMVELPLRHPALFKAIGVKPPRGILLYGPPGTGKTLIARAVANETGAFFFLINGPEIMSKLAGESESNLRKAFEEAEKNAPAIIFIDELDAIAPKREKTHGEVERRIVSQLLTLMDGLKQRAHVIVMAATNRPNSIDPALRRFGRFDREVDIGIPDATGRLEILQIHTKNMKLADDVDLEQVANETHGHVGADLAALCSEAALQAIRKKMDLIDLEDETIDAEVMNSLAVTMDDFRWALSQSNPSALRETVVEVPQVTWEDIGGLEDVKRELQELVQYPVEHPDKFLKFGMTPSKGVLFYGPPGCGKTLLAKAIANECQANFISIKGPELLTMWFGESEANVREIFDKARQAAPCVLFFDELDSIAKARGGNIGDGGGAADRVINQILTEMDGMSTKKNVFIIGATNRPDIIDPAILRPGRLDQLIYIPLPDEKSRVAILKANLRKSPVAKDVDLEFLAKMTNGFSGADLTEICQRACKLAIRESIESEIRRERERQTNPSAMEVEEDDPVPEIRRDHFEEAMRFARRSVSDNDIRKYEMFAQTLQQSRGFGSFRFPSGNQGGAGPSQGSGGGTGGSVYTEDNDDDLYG

O=C(C#Cc1ccccc1)Nc1ccc2oc(-c3ccccn3)nc2c1 [Compound 243, 3-phenyl-N-(2-(pyridin-2-yl)benzo[d]oxazol-5-yl)propiolamide]
Fold Selectivity [1]: 9.5
IC50 ([1]; Sm p97, 100 μM – 1 nM, Suppl. Fig. 9C): 2.1 ± 0.75 µM
IC50 [1, 3]: 2.1 ± 0.75 µM
IC50 ([1]; p97 enzyme, Suppl. Fig. 11D): 2.1 ± 0.75 µM
IC50 ([1]; recombinant parasite enzyme, 100 μM-1 nM, Fig. 4D): 2.1 ± 0.75 µM
IC50 (H. sapiens p97 (P55072); Hs p97, 100 μM – 1 nM, Suppl. Fig. 9C): 20 ± 0.54 µM
IC50 (H. sapiens p97 (P55072); [4]): 20 ± 0.54 µM
IC50 (H. sapiens p97 (P55072); p97 enzyme, Suppl. Fig. 11D): 20 ± 0.54 µM
IC50 (H. sapiens p97 (P55072); recombinant human enzyme, 100 μM-1 nM, Fig. 4D): 20 ± 0.54 µM
GI50 (HepG2 cells; HepG2, 72 h): 5.6 µM
IC50 (HepG2 cells; HepG2, 72 h): 9.6 µM
GI50 (HepG2 cells; HepG2, read-out: HepG2 GI50): 5.6 µM
IC50 (HepG2 cells; HepG2, read-out: HepG2 IC50): 9.6 µM
time to detachment of adult worms in culture (adult S. mansoni worms): ≤ 48 h
EC50 (adult S. mansoni worms; adult parasites, fraction of worms attached, 72 hours of drug treatment, in culture until D5, 50 μM - 10 nM, Suppl. Fig. 9C): 3.5 µM
effect on adult worms (adult S. mansoni worms): led to death in adult parasites; also recorded: ultimately leading to their death
Screen Inhibition [2]: 46%

O=C(C#Cc1ccccc1)Nc1ccc2oc(-c3cccnc3)nc2c1 [Compound 244, 3-phenyl-N-(2-(pyridin-3-yl)benzo[d]oxazol-5-yl)propiolamide]
IC50 ([1]; p97 enzyme, Suppl. Fig. 11D): > 100 µM
activity on the enzyme ([1]; schistosome p97): minimal activity on the enzyme
IC50 (H. sapiens p97 (P55072); p97 enzyme, Suppl. Fig. 11D): > 100 µM
EC50 (adult S. mansoni worms): 25 µM
effect on adult worms (adult S. mansoni worms): did not have any adverse effects on worm health and survival
Screen Inhibition [2]: 16%

O=C(C=Cc1ccccc1)Nc1ccc2oc(-c3ccccc3)nc2c1 [Compound 135, N-(2-phenylbenzo[d]oxazol-5-yl)cinnamamide]
IC50 [1, 3]: > 100 µM
IC50 (H. sapiens p97 (P55072); [4]): > 100 µM
Screen Inhibition [2]: 1.1%
inhibition of S. mansoni p97 function in the screen [2]: inactive

O=C(C#Cc1ccccc1)Nc1ccc2oc(-c3ccccc3)nc2c1 [Compound 245, 3-phenyl-N-(2-phenylbenzo[d]oxazol-5-yl)propiolamide]
Fold Selectivity [1, 5]: > 30
IC50 ([1]; p97 enzyme, Suppl. Fig. 11D): 3.8 ± 0.19 µM
IC50 (H. sapiens p97 (P55072); p97 enzyme, Suppl. Fig. 11D): > 100 µM
EC50 (adult S. mansoni worms): 12 µM
effect on adult worms (adult S. mansoni worms): did cause detachment, it did not lead to parasite death
Screen Inhibition [2]: 36%

O=C(C#Cc1ccccc1)Nc1ccc2oc(-c3ccncc3)nc2c1 [Compound 242, 3-phenyl-N-(2-(pyridin-4-yl)benzo[d]oxazol-5-yl)propiolamide]
Fold Selectivity [1, 5]: 8.6
IC50 ([1]; p97 enzyme, Suppl. Fig. 11D): 1.4 ± 0.11 µM
IC50 (H. sapiens p97 (P55072); p97 enzyme, Suppl. Fig. 11D): 12 ± 0.31 µM
time to detachment of adult worms in culture (adult S. mansoni worms): ≤ 48 h
EC50 (adult S. mansoni worms): 9.9 µM
effect on adult worms (adult S. mansoni worms): led to death in adult parasites; also recorded: ultimately leading to their death
Screen Inhibition [2]: 47%

O=C(CCc1ccccc1)Nc1ccc2oc(-c3ccccn3)nc2c1 [Compound 326, 3-phenyl-N-(2-(pyridin-2-yl)benzo[d]oxazol-5-yl)propanamide]
IC50 [1, 3]: > 100 µM
IC50 (H. sapiens p97 (P55072); [4]): > 100 µM
Screen Inhibition [2]: 2.2%
inhibition of S. mansoni p97 function in the screen [2]: inactive

O=C(/C=C\c1ccccc1)Nc1ccc2oc(-c3ccccc3)nc2c1 [Compound 324, (Z)-3-phenyl-N-(2-phenylbenzo[d]oxazol-5-yl)acrylamide]
IC50 [1, 3]: > 100 µM
IC50 (H. sapiens p97 (P55072); [4]): > 100 µM
Screen Inhibition [2]: 1.1%
inhibition of S. mansoni p97 function in the screen [2]: inactive
